Among the data in patent US20030203966A1, “Nitromethylthiobenzene derivatives as aldose reductase inhihibitors” (priority 1996, published 2003) are melting point values, retold here.

The melting point is the temperature of the solid-liquid transition.

In turn, `Cc1cc(NS(=O)(=O)c2cccs2)cc(C)c1S(=O)(=O)C[N+](=O)[O-]` [Example 32, N-[3,5-Dimethyl-4-[(nitromethyl)sulphonyl]phenyl]-2-thiophenesulphonamide] yielded a melting point of 158 to 159 °C.

Compound `Cc1cc(NS(=O)(=O)c2ccccc2)cc(C)c1S(=O)(=O)C(Cl)(Cl)[N+](=O)[O-]` [Example 33, N-[4-[(Dichloronitromethyl)sulphonyl]-3,5-dimethylphenyl]benzenesulphonamide] had a melting point of 112 to 114 °C.

`Cc1cc(NS(=O)(=O)c2ccc(C(F)(F)F)cc2)cc(C)c1S(=O)(=O)C[N+](=O)[O-]` [Example 35, N-[3,5-Dimethyl-4-[(nitromethyl)sulphonyl]phenyl]-4-(trifluoromethyl)benzenesulphonamide] returned a melting point of 187 to 188 °C.

`Cc1cc(NS(=O)(=O)c2ccc(OC(F)(F)F)cc2)cc(C)c1S(=O)(=O)C[N+](=O)[O-]` [Example 36, N-[3,5-Dimethyl-4-[(nitromethyl)sulphonyl]phenyl]-4-(trifluoromethoxy)benzenesulphonamide] gave a melting point of 180 to 182 °C.

For `Cc1cc(NS(=O)(=O)c2c(F)c(F)c(F)c(F)c2F)cc(C)c1S(=O)(=O)C[N+](=O)[O-]` [Example 37, N-[3,5-Dimethyl-4-[(nitromethyl)sulphonyl]phenyl]-2,3,4,5,6-pentafluorobenzenesulphonamide], the melting point was in the range of 128 to 130 °C.

`Cc1cc(NS(=O)(=O)c2ccc3oc4ccccc4c3c2)cc(C)c1S(=O)(=O)C[N+](=O)[O-]` [Example 38, N-[3,5-Dimethyl-4-[(nitromethyl)sulphonyl]phenyl]-2-dibenzofuransulphonamide]: the melting point was 214 to 215 °C (dec.).

Consider `Cc1cc(NS(=O)(=O)c2ccc(-c3ccccc3)cc2)cc(C)c1S(=O)(=O)C[N+](=O)[O-]` [Example 39, N-[3,5-Dimethyl-4-[(nitromethyl)sulphonyl]phenyl]-4-biphenylsulphonamide], for which the melting point is 206 to 208 °C (dec.).

As to `CC(=O)Nc1ccc(S(=O)(=O)Nc2cc(C)c(S(=O)(=O)C[N+](=O)[O-])c(C)c2)cc1Cl` [Example 43, N-[2-Chloro-4-[3,5-dimethyl-4-[(nitromethyl)sulphonyl]-phenylsulphamoyl]phenyl]acetamide], the melting point was in the range of 209 to 211 °C.

On to `Cc1ccccc1S(=O)(=O)Nc1cc(C)c(S(=O)(=O)C[N+](=O)[O-])c(C)c1` [Example 45, N-[3,5-Dimethyl-4-[(nitromethyl)sulphonyl]phenyl]-2-methylbenzenesulphonamide], for which the melting point fell in the range of 118 to 120 °C.

`COc1cccc(S(=O)(=O)Nc2cc(C)c(S(=O)(=O)C[N+](=O)[O-])c(C)c2)c1` [Example 46, N-[3,5-Dimethyl-4-[(nitromethyl)sulphonyl]phenyl]-3-methoxybenzenesulphonamide] returned a melting point of 166 to 168 °C.

In turn, `Cc1cc(NS(=O)(=O)c2cccnc2)cc(C)c1S(=O)(=O)C[N+](=O)[O-]` [Example 47, N-[3,5-Dimethyl-4-[(nitromethyl)sulphonyl]phenyl]-3-pyridinesulphonamide] returned a melting point of 191 to 192 °C.

For the compound `Cc1cc(NS(=O)(=O)Cc2ccccc2C(F)(F)F)cc(C)c1S(=O)(=O)C[N+](=O)[O-]` [Example 48, N-[3,5-Dimethyl-4-[(nitromethyl)sulphonyl]phenyl]-(2-trifluoromethylphenyl)methanesulphonamide], the melting point lay within 146 to 148 °C.

On to `CC(=O)Nc1cccc(S(=O)(=O)Nc2cc(C)c(S(=O)(=O)C[N+](=O)[O-])c(C)c2)c1` [Example 50, N-[3[[3,5-Dimethyl-4-[(nitromethyl)sulphonyl]phenylamino]sulphonyl]phenyl]acetamide], for which the melting point was in the range of 108 to 110 °C.

`Cc1ccccc1CS(=O)(=O)Nc1cc(C)c(S(=O)(=O)C[N+](=O)[O-])c(C)c1` [Example 51, N-[3,5-Dimethyl-4-[(nitromethyl)sulphonyl]phenyl]-(2-methylphenyl)methanesulphonamide]: the melting point lay in the range of 167 to 169 °C.
